# Experimental data published in patent US20080227813A1, “Pharmaceutical compositions and methods for treating diseases associated with neurodegeneration” (priority 2006, published 2008).
# Like-named read-outs stand apart in the source and are kept apart here.
# Assays:
# mSOD1^(G93A) mice = experiment: Lifespan and disease progression in mSOD1(G93A) ALS mice; format: in vivo, mouse
# Experimental: Nat. Med. 10(4), p. 345-7 (2004), which is incorporated by reference.
# Thus, Compound I-treated mice lived an average of 153 days (±2.6 SEM, n=7). This represents a significant increase in lifespan of over 22% (p=<0.001). The effect of beginning Compound I treatment at the time of disease onset was also tested by starting treatment at 70 days of age, when the first signs of locomotor defects are observed. Compound I treatment from 70 days of age extended the mean lifespan of mSOD1^(G93A) mice by 23 days, from 125 days (±1.8 SEM, n=18) in the untreated group to 148 days (±1.5 SEM, n=5) in the treated group. This represents an increase in lifespan of 18% (p=<0.001).
# CRL:(WI)BR rats = experiment: Acute oral toxicity in rats; format: in vivo; conditions: rat
# Experimental: All animal toxicology studies were performed at Toxicological Research Centre (Veszprém, Hungary) using protocols compliant with OECD guidelines and Principles of Good Laboratory Practice. Following is a summary of the studies conducted.
# Acute oral toxicity studies were performed in rats (CRL(WI:)BR) and in mice (CRL: NMRI BR). A control and five dose groups were involved in the rat study at dose levels of 2000 mg/kg, 2600 mg/kg, 3400 mg/kg, 4400 mg/kg and 5700 mg/kg (equal to 1241 mg/kg, 1613 mg/kg, […], 2729 mg/kg and 3535 mg/kg free base, n=5 animals/sex/group).
# [1] = system: Salmonella typhimurium strains TA98, TA100, TA1537, TA1535 and Escherichia coli WP2 uvrA; experiment: Genotoxicity in bacterial assays; format: cell-based; conditions: up to 5000 μg test item/plate, with and without rat liver fraction
# Beagle dogs = experiment: 110-day repeated dose oral toxicity study in dogs; format: in vivo, dog
# Experimental: Evaluation […] involving control and three dose groups of 50, 80 and 160 mg/kg/day (equal to 31.0 mg/kg, 49.6 mg/kg and 99.2 mg/kg free base).
# CRL:NMRI BR mice = experiment: Acute intravenous toxicity in mice; format: in vivo; conditions: mouse
# Experimental: A control and five dose groups were involved in the mouse study, at dose levels of 200 mg/kg, 250 mg/kg, 300 mg/kg, 360 mg/kg and 450 mg/kg (equal to […], 155 mg/kg, 186 mg/kg, 223 mg/kg and 279 mg/kg free base, n=5 animals/sex/group).
# CRL(:WI)BR rats = experiment: 28-day repeated dose oral toxicity study in rats; format: in vivo, rat; conditions: for No observed adverse effect level (NOAEL): rat male and female, 28-day oral
# Experimental: To assess recovery post treatment, an additional 5 males and females were included in both the control and highest dosage groups. Treatment was carried out by gavage once daily. Control animals were treated with physiologic saline in the same way.
# Pre-treatment: general condition and behavior activity patterns were observed. Also in a subgroup of 5 male and 5 female animals, hematological and clinical chemistry tests were performed.
# During the treatment period and following a two-week recovery period the clinical observations were made daily. At weekly intervals body weight and food consumption were measured.
# At the end of the treatment, hematological, clinical chemistry evaluation and gross necropsy with organ weight assessment were conducted. […] In addition, the liver and kidneys and the organs showing macroscopic changes were examined microscopically in the low and middle dose groups, too.
# [2] = dog, in vivo, po
# Experimental: Four animals of both sexes/groups were used, except the control and high dose group where the groups were completed with 2 recovery animals in both sexes.
# The check of mortality and the clinical observations were performed twice daily, the weighing of non-consumed food was done daily. The body weight of the animals was measured once a week. The urine, hematological, clinical chemical and ECG investigations were performed before the first treatment day and at termination of the treatment and at the end of the recovery period. The blood samples for kinetic analysis were taken in the 2nd and in the 104th, 110th and 111th treatment days. The opthalmoscopic examinations were performed prior to the treatment, at termination of the treatment and at the end of the recovery period. Terminally gross necropsy and histopathological examinations were performed in all animals.
# [3] = Relative animal toxicokinetic and human pharmacokinetic drug exposures; format: in vivo; conditions: maximum human drug exposure (100 mg tid) = 1.0
# [4] = rat, in vivo
# Experimental: The pharmacokinetic properties of total radioactivity were studied in male and female Wistar rats at the dose of 25.8 mg/kg ^14C labeled Compound I (equal to 16 mg/kg free base) administered intravenously and orally (Study B: Compound I/PRE SK-007). The concentrations of total radioactivity were monitored by liquid scintillation counting and whole-body autoradiographic methods in serum, organs, tissues, and excreta. All parts of the study were performed in both sexes (n=5 in both sexes).
# [5] = treatment from 70 days of age, vs untreated
# [6] = dog, 50, 80, 160 mg/kg/day oral
smiles,measurement,setting,value
"[O-][n+]1cccc(/C(Cl)=N/OC[C@H](O)CN2CCCCC2)c1 [Compound I, N-[2-hydroxy-3-(1-piperidinyl)-propoxy]-pyridine-1-oxide-3-carboximidoyl chloride]",average lifespan,"mSOD1^(G93A) mice; 10 mg/kg ip daily from 35 days of age, untreated 125 days",153 days
same,mean lifespan,"mSOD1^(G93A) mice; 10 mg/kg ip daily from 70 days of age, untreated 125 days",148 days
same,progression of disease,mSOD1^(G93A) mice; ALS transgenic mouse model,significantly delayed the progression of disease
same,extension of survival,"mSOD1^(G93A) mice; given pre-symptomatically and at disease onset, study rationale statement",five weeks
same,increase in lifespan,"mSOD1^(G93A) mice; treatment from 35 days of age, vs untreated",over 22%
same,extension of mean lifespan,mSOD1^(G93A) mice; [5],23 days
same,increase in lifespan,mSOD1^(G93A) mice; [5],18%
same,Oral LD50 value,"CRL:(WI)BR rats; female, by base",1977 - by base mg/kg
same,Oral LD50 value,"CRL:(WI)BR rats; female, by citrate",3188 - by citrate mg/kg
same,Oral LD50 value,"CRL:(WI)BR rats; male, by base",1754 (1425-2146) - by base mg/kg
same,Oral LD50 value,"CRL:(WI)BR rats; male, by citrate",2828 (2297-3460) - by citrate mg/kg
same,mutagenic activity,[1],no mutagenic activity
same,ECG and ophthalmological alterations,Beagle dogs; [6],No ECG and opthalmological alterations
same,mortality,Beagle dogs; [6],No animals died
same,NOEL,"Beagle dogs; dog, both sexes, oral once daily for 112 days",50 mg/kg/day
same,Intravenous LD50 value,"CRL:NMRI BR mice; female, by base",158 - by base mg/kg
same,Intravenous LD50 value,"CRL:NMRI BR mice; female, by citrate",254 - by citrate mg/kg
same,Intravenous LD50 value,"CRL:NMRI BR mice; male, by base",190 (164-223) by base mg/kg
same,Intravenous LD50 value,"CRL:NMRI BR mice; male, by citrate",307 (265-359) by citrate mg/kg
same,amount of metabolite No. 3,dog liver cells,4.9 % of the total radioactivity
same,amount of metabolite No. 4,dog liver cells,3.3 % of the total radioactivity
same,clearance,"dog liver cells; dog, hepatocytes",0.055 mL/h
same,t1/2,"dog liver cells; dog, hepatocytes",12.6 h
same,No observed adverse effect level (NOAEL),CRL(:WI)BR rats; by base,233 mg/kg/day
same,No observed adverse effect level (NOAEL),CRL(:WI)BR rats; by citrate,375 mg/kg/day
same,mortality,"CRL(:WI)BR rats; rat, 375, 750, 1500 mg/kg/day oral, 28 days",No deaths occurred
same,AUCtot,[2]; 50 mg/kg/day,40.22 mg·h/L
same,Cmax,[2]; 50 mg/kg/day,10.84 mg/L
same,MRT,[2]; 50 mg/kg/day,3.78 h
same,Tmax,[2]; 50 mg/kg/day,1.78 h
same,clearance,[2]; 50 mg/kg/day,0.78 L/h/kg
same,t½,[2]; 50 mg/kg/day,1.89 h
same,AUCtot,[2]; 80 mg/kg/day,87.01 mg·h/L
same,Cmax,[2]; 80 mg/kg/day,22.00 mg/L
same,MRT,[2]; 80 mg/kg/day,4.04 h
same,Tmax,[2]; 80 mg/kg/day,1.88 h
same,clearance,[2]; 80 mg/kg/day,0.57 L/h/kg
same,t½,[2]; 80 mg/kg/day,2.10 h
same,AUCtot,[2]; 160 mg/kg/day,166.39 mg·h/L
same,Cmax,[2]; 160 mg/kg/day,37.95 mg/L
same,MRT,[2]; 160 mg/kg/day,4.57 h
same,Tmax,[2]; 160 mg/kg/day,1.94 h
same,clearance,[2]; 160 mg/kg/day,0.62 L/h/kg
same,t½,[2]; 160 mg/kg/day,2.44 h
same,Fold-above minimum effective mouse exposure,[3]; AUC,12
same,Fold-above minimum effective rat exposure,[3]; AUC,5.9
same,Fold-below dog drug exposure at NOAEL,[3]; AUC,17
same,Fold-below rat drug exposure at NOAEL,[3]; AUC,6.0
same,Fold-above minimum effective mouse exposure,[3]; Cmax,2.8
same,Fold-above minimum effective rat exposure,[3]; Cmax,1.4
same,Fold-below dog drug exposure at NOAEL,[3]; Cmax,5
same,Fold-below rat drug exposure at NOAEL,[3]; Cmax,28
same,dose eliminated with bile,[4],20-30 % of dose
same,dose remaining in the rats,[4],~20%
same,"radioactivity by 3rd post-treatment hour, share of first measured concentration","[4]; iv, 25.8 mg/kg",20%
same,"organ radioactivity at 4th hour, share of 45 min values",[4]; po,20-60%
same,penetration through the blood-brain barrier,[4]; po,weak penetration through the blood-brain barrier
same,increase of radioactivity in organs and tissues,"[4]; po, 25.8 mg/kg",4-12 fold
same,time of first maximal serum concentration of radioactivity,"[4]; po, 25.8 mg/kg",≤ 1 h
same,total exposure of last day (0-24 h AUD) vs first day,"[4]; po, 25.8 mg/kg",more than two times higher
